Measured values: patent publication US4103011A, “Novel penicillin compounds and process for preparation thereof” (priority 1976, dated 1978)
Where a name gives a salt, the structure may show the parent alone. Read-outs that look alike come from different tables or passages of the source.

Key:
[1] = Urinary excretion in mice; assay type: in vivo, male mice (ddY); conditions: for a: amount in urine: 4 mice, total body weight 101.8 g
Method: The contents of the vials (No. A) obtained in Example 17 were dissolved in deionized water to form solutions of penicillin compound 1 in a concentration of 25 mg/ml. The solutions were administered in a dose of 25 mg/kg (im) to four male mice (ddY) having an average body weight of 25 g. After given periods of time, the urine was collected from the four mice, and the concentration of the penicillin compound 1 in the urine was determined.
Urine was collected by using a metabolism cage for 3, 6, and 24 hours after administration. The pooled urine was diluted with a 0.067M phosphate buffer (pH 7.0) before assay to 500 times for the 0-3 hour urine, 100 times for the 3-6 hour urine and 10 times for the 6-24 hour urine.
The levels of compound 1 were determined by the thin-layer cup-plate method using Escherichia coli Kp as an indicator microorganism and a standard calibration line was prepared in a 0.067M phosphate buffer (pH 7.0).

[2] = test system: mice
[3] = in vivo; conditions: mouse
[4] = Plasma level in mice; assay type: in vivo, male mice (ddY)
Method: The contents of the vials (No. A) obtained in Example 17 were dissolved in deionized water to form solutions of compound 1 in a concentration of 100 mg/ml. The solutions were intramuscularly (im) administered to twenty four male mice (ddY) having an average body weight of 26 g at a dose of 25 mg/kg.
Blood was taken by cardiac puncture from four mice ech 0.25, 0.5, 1, 2, 3 and 4 hours after administration, and centrifuged individually to separate the plasma.
Drug levels were determined by the thin-layer cup-plate method using Escherichia coli Kp as an indicator organism. Plasma was appropriately (to more than 10 times) diluted with a 0.067 M phosphate buffer having a pH of 7.0. A standard calibration line was prepared in the same buffer.

[5] = after parenteral administration

For `CC1(C)S[C@@H]2[C@H](NC(=O)[C@H](NC(=O)c3c[nH]c4nc(N5CCN(C=O)CC5)ncc4c3=O)c3ccc(O)cc3)C(=O)N2[C@H]1C(=O)O` [Compound 1, D-α-[5,8-Dihydro-2-(4-formyl-1-piperazinyl)-5-oxopyrido[2,3-d]pyrimidine-6-carboxamido]-p-hydroxybenzyl-penicillin sodium salt], the “a: amount in urine” value ([1]; 25 mg/kg, im, single dose, 0-3 hour) was 0.718 mg, the “a: amount in urine” value ([1]; 25 mg/kg, im, single dose, 3-6 hour) was 0.0480 mg and the “a: amount in urine” value ([1]; 25 mg/kg, im, single dose, 6-24 hour) was 0.0483 mg. For the same molecule, the “urinary level (in words)” value [1, 5] was “higher than its MIC (μg/ml) values against various bacteria shown in Table I”, the dose excreted at 3 h ([1]; mouse, urine, im, 25 mg/kg, im, single dose, 0-3 hour, read-out: cr: cumulative urinary recovery) was 28.2% and the dose excreted at 3 h ([1]; mouse, urine, im, 25 mg/kg, im, single dose, 0-3 hour, read-out: r: urinary recovery) was 28.2%. For the same molecule, the dose excreted at 6 h ([1]; mouse, urine, im, 25 mg/kg, im, single dose, 3-6 hour, read-out: r: urinary recovery) was 1.89%, the dose excreted at 24 h ([1]; mouse, urine, im, 25 mg/kg, im, single dose, 6-24 hour, read-out: r: urinary recovery) was 1.9% and the dose excreted at 6 h ([1]; mouse, urine, im, 25 mg/kg, im, single dose, column 3-6 hour, read-out: cr: cumulative urinary recovery) was 30%. For the same molecule, the dose excreted at 24 h ([1]; mouse, urine, im, 25 mg/kg, im, single dose, column 6-24 hour, read-out: cr: cumulative urinary recovery) was 31.9%, the concentration at 3 h ([1]; mouse, urine, 25 mg/kg, im, single dose, 0-3 hour, read-out: c: urinary concentration) was 187000 ng/mL and the concentration at 6 h ([1]; mouse, urine, 25 mg/kg, im, single dose, 3-6 hour, read-out: c: urinary concentration) was 21500 ng/mL. The concentration at 24 h ([1]; mouse, urine, 25 mg/kg, im, single dose, 6-24 hour, read-out: c: urinary concentration) was 7250 ng/mL, the “chemotherapeutic index relative to compounds B, D, E, F, G and J (times as high)” value ([2]; Pseudomonas aeruginosa) was 3 to 100 times and the “LD50 relative to compounds A to G (times as high)” value ([2]; mice) was 2 to 10 times. It also gave an LD50 at 168 h ([3]; iv) of 4520 mg/kg, a selectivity ratio ([3]; iv) of 1100 and an LD50 at 168 h ([3]; sc) greater than 6000 mg/kg. For the same molecule, the selectivity ratio ([3]; sc) was greater than 3000, the “plasma level (in words)” value [4, 5] was “much the same concentration as the MIC” and the concentration at 0.25 h ([4]; mouse, plasma, 25 mg/kg, im, single dose, 0.25 hour, read-out: Average plasma conc.) was 27400 ng/mL. For the same molecule, the concentration at 0.5 h ([4]; mouse, plasma, 25 mg/kg, im, single dose, 0.5 hour, read-out: Average plasma conc.) was 21500 ng/mL, the concentration at 1 h ([4]; mouse, plasma, 25 mg/kg, im, single dose, 1 hour, read-out: Average plasma conc.) was 15600 ng/mL and the concentration at 2 h ([4]; mouse, plasma, 25 mg/kg, im, single dose, 2 hour, read-out: Average plasma conc.) was 9570 ng/mL. For the same molecule, the concentration at 3 h ([4]; mouse, plasma, 25 mg/kg, im, single dose, 3 hour, read-out: Average plasma conc.) was 4010 ng/mL and the concentration at 4 h ([4]; mouse, plasma, 25 mg/kg, im, single dose, 4 hour, read-out: Average plasma conc.) was 2740 ng/mL.
